Values after ≈ are worked out from the molar mass of the structure shown. Values belong to the compound of their own block, whether it stands above or below them. Active and inactive are the calls of the source. The rule behind the calls is not given here.
Assays:
[1] = Displacement of [3H]N-alpha-methylhistamine from rhesus monkey histamine H3 receptor transfected in CHO cells; assay type: cell-based, Macaca mulatta
[2] = Drug metabolism in rat liver microsomes; assay type: ADME, Microsome; details: read-out: Drug metabolism
[3] = Drug metabolism in mouse liver microsomes; assay type: ADME, Microsome; details: read-out: Drug metabolism
[4] = Drug metabolism in human liver microsomes; assay type: ADME, Microsome; details: read-out: Drug metabolism
[5] = Apparent permeability across human Caco2/TC7 cells; assay type: ADME, cell-based; details: Caco-2
[6] = target: Histamine H2 receptor (Homo sapiens) (UniProt P25021); assay: Binding affinity to human histamine H2 receptor
[7] = target: Voltage-gated inwardly rectifying potassium channel KCNH2 (Homo sapiens, UniProt Q12809); assay: Inhibition of human ERG channel
Histamine H1 receptor = Histamine H1 receptor (Homo sapiens, UniProt P35367); assay: Binding affinity to human histamine H1 receptor
[8] = Antagonist activity at rhesus monkey histamine H3 receptor by GTPgammaS binding assay; parameters: species or system Macaca mulatta
Histamine H3 receptor [9] = target: Histamine H3 receptor (Rattus norvegicus, UniProt Q9QYN8); assay: Displacement of [3H]N-alpha-methylhistamine from rat histamine H3 receptor
Histamine H3 receptor [10] = target: T1, Histamine H3 receptor (Homo sapiens, UniProt Q9Y5N1); assay: Displacement of [3H]N-alpha-methylhistamine from human histamine H3 receptor
hERG (KCNH2) [11] = target: T2, hERG (KCNH2) (Homo sapiens, UniProt Q12809); assay: Inhibition of human ERG channel at 10 uM
hERG (KCNH2) [12] = target: T2, hERG (KCNH2); assay: Inhibition of human ERG channel at 1 uM
Histamine H3 receptor [13] = target: T1, Histamine H3 receptor; assay: Antagonist activity at human histamine H3 receptor at 10 uM by GTPgammaS binding assay; assay type: functional
Histamine H3 receptor [14] = target: T1, Histamine H3 receptor; assay: Antagonist activity at human histamine H3 receptor by FLIPR assay
Mus musculus [15] = assay: Antiobesity activity in po dosed diet-induced obese mouse assessed as reduction in accumulated food intake after 4 to 12 hrs; assay type: functional, organism-based
Mus musculus [16] = assay: Antiobesity activity in diet-induced obese mouse assessed as reduction in accumulated food intake at 1 to 3 mg/kg, po after 12 hrs (reference value: 27.3 %); assay type: functional; parameters: scale not given: the % may be the effect or the level left; details: dose mg/kg 1-3
Mus musculus [17] = assay: Antiobesity activity in diet-induced obese mouse assessed as reduction in accumulated food intake at 1 to 3 mg/kg, po after 6 hrs (reference value: 0.1 %); assay type: functional; parameters: scale not given: the % may be the effect or the level left; details: dose mg/kg 1-3
Mus musculus [18] = assay: Antiobesity activity in diet-induced obese mouse assessed as reduction in accumulated food intake at 1 to 3 mg/kg, po after 4 hrs (reference value: -4.7 %); assay type: functional; parameters: scale not given: the % may be the effect or the level left; details: dose mg/kg 1-3
[19] = Solubility of the compound; assay type: physicochemical

T1 sequence (Q9Y5N1 whole entry): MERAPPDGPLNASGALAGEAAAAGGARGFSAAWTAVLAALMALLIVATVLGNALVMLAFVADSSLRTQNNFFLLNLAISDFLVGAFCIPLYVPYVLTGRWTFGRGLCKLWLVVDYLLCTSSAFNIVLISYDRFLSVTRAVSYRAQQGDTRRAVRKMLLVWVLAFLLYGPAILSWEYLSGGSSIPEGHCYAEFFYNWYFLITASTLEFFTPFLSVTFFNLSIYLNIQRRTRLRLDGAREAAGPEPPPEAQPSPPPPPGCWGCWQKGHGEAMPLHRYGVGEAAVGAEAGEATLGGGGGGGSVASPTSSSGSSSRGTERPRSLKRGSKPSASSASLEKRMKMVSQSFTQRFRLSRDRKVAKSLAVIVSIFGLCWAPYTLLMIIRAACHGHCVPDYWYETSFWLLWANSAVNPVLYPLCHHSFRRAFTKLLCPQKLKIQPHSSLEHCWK
Chain of Histamine H3 receptor (Rattus norvegicus, UniProt Q9QYN8) (Q9QYN8 whole entry): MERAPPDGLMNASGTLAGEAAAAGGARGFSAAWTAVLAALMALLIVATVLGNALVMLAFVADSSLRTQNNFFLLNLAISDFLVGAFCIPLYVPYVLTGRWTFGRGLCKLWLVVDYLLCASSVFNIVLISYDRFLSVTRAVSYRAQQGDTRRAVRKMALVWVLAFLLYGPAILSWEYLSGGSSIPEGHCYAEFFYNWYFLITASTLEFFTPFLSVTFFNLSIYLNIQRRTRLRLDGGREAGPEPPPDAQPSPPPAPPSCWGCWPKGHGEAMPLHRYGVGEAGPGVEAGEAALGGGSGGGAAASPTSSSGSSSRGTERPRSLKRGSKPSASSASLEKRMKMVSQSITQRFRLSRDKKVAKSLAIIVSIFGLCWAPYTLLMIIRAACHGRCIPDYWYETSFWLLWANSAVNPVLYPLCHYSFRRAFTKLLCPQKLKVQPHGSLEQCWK
T2 sequence (Q12809 whole entry): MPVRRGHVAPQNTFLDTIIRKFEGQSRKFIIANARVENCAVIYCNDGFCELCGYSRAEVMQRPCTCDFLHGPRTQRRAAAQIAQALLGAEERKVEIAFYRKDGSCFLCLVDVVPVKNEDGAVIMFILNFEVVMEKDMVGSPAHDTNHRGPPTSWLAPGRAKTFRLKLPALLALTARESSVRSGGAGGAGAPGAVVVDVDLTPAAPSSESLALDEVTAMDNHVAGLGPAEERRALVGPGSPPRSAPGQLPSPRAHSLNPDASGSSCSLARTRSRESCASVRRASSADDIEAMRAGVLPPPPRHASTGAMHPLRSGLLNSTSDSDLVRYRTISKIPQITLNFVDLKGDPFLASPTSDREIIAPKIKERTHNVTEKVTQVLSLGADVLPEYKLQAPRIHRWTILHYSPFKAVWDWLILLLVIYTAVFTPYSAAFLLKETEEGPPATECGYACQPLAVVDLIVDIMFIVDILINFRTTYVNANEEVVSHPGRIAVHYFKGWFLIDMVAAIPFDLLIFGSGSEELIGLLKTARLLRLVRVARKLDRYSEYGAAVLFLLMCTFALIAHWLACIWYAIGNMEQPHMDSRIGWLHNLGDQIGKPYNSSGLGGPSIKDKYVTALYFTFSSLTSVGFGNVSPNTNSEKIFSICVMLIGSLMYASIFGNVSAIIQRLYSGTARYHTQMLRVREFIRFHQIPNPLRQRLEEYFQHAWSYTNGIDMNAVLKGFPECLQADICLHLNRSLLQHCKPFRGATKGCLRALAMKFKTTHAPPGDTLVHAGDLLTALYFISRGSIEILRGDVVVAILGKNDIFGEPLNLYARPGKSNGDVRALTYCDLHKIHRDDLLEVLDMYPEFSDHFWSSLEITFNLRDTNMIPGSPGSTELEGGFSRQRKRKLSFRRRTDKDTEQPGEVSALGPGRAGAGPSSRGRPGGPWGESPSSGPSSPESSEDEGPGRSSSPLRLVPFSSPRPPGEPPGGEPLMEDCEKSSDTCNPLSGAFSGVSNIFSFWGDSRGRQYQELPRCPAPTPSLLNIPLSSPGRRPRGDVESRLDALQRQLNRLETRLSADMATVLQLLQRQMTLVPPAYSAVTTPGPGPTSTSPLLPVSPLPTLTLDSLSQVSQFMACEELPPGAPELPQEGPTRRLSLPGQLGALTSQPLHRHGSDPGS
Chain of Voltage-gated inwardly rectifying potassium channel KCNH2 (Q12809 whole entry): as above
Chain of Histamine H2 receptor (Homo sapiens) (P25021 whole entry): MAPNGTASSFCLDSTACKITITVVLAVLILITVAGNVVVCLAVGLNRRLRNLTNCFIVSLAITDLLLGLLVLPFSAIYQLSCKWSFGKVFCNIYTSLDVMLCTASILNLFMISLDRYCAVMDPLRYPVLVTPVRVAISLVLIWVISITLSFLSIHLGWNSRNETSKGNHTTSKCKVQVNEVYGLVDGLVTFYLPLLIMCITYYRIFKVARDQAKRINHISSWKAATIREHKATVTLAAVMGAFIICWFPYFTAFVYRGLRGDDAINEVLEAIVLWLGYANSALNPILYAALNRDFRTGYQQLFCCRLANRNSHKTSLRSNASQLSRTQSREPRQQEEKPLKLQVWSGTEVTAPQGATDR
Chain of Histamine H1 receptor (P35367 whole entry): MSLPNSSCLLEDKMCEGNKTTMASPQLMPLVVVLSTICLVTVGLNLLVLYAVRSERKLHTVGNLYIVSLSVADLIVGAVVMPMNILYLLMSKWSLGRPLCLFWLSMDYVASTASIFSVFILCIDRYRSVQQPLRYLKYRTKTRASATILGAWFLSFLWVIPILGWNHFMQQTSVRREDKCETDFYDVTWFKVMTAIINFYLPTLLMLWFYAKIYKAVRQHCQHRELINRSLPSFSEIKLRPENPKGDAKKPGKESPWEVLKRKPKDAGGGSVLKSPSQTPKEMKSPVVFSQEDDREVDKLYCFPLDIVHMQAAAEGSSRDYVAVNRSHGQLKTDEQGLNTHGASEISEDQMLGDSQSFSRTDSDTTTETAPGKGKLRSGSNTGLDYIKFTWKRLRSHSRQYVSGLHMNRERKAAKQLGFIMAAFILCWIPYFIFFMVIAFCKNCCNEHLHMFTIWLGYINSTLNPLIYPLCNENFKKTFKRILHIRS

Structure (SMILES): Cc1cc(NC(=O)c2cc(Cl)cc(Cl)c2)ccc1N1CCC(N2CCCC2C)C1 (stereo unspecified)
Ki [1]: 54 nM

metabolised [2]: 57%
metabolised [3]: 30%
metabolised [4]: 9%
Structure (SMILES): Cc1cc(N2CCC(N3CCCC3C)C2)ccc1NC(=O)c1cccnc1 (stereo unspecified)
Ki [1]: 10.1 nM

Structure (SMILES): Cc1ccc(F)cc1C(=O)Nc1ccc(N2CCC(N3CCCC3C)C2)cc1 (stereo unspecified)
Ki [1]: 4.7 nM

metabolised [2]: 37%
metabolised [3]: 16%
metabolised [4]: 2%
Papp [5]: 9.19 ×10⁻⁶ cm/s
Structure (SMILES): Cc1cc(C(=O)Nc2ccc(N3CCC(N4CCCC4C)C3)cc2)n[nH]1 (stereo unspecified)
Ki [1]: 44.5 nM

Structure (SMILES): CC1CCCN1C1CCN(c2ccc(NC(=O)c3cn[nH]c3)cc2)C1 (stereo unspecified)
Ki [1]: 22.1 nM

Structure (SMILES): Cc1cc(N2CCC(N3CCCC3C)C2)ccc1NC(=O)c1ccc(-n2cncn2)cc1 (stereo unspecified)
Ki [1]: 8.1 nM

Activity [6]: inactive
Ki (Histamine H1 receptor): > 9300 nM
EC50 [8]: 2.9 nM
Ki (Histamine H3 receptor [9]): 55.4 nM
Ki (Histamine H3 receptor [10]): 13.8 nM
metabolised [2]: 28%
metabolised [4]: 15%
Papp [5]: 9.24 ×10⁻⁶ cm/s
Structure (SMILES): Cc1cc(N2CCC(N3CCCC3C)C2)ccc1NC(=O)c1ccccc1F (stereo unspecified)
IC50 [7]: 1000 nM
Ki [1]: 5.8 nM

Structure (SMILES): Cc1cc(N2CCC(N3CCCC3C)C2)ccc1NC(=O)c1c(C)noc1C (stereo unspecified)
Ki [1]: 2.6 nM

Structure (SMILES): Cc1cc(N2CCC(N3CCCC3C)C2)ccc1NC(=O)c1cccc(F)c1 (stereo unspecified)
Ki [1]: 12.1 nM

Structure (SMILES): Cc1cc(N2CCC(CN3CCCC3C)C2)ccc1NC(=O)c1ccc(C)c(S(C)(=O)=O)c1 (stereo unspecified)
Ki [1]: 29 nM

Structure (SMILES): Cc1cc(N2CCC(CN3CCCC3C)C2)ccc1NC(=O)c1ccc2cc[nH]c2c1 (stereo unspecified)
Ki [1]: 18 nM

Structure (SMILES): Cc1cc(N2CCC(N3CCCC3C)C2)ccc1NC(=O)c1ccc(-c2cccnc2)cc1 (stereo unspecified)
Ki [1]: 18.8 nM

Structure (SMILES): Cc1cc(NC(=O)c2cn[nH]c2)ccc1N1CCC(N2CCCC2C)C1 (stereo unspecified)
Ki [1]: 126 nM

Structure (SMILES): Cc1cc(N2CCC(N3CCCC3C)C2)ccc1NC(=O)c1ccc(N2CCOCC2)cc1 (stereo unspecified)
Ki [1]: 44 nM

Structure (SMILES): Cc1cc(NC(=O)c2c(C)noc2C)ccc1N1CCC(N2CCCC2C)C1 (stereo unspecified)
Ki [1]: 3.2 nM

Structure (SMILES): Cc1cc(N2CCC(N3CCCC3C)C2)ccc1NC(=O)c1ccc(-n2cccn2)cc1 (stereo unspecified)
Ki [1]: 39.1 nM

metabolised [2]: 33%
metabolised [3]: 22%
metabolised [4]: 32%
Structure (SMILES): Cc1cc(N2CCC(N3CCCC3C)C2)ccc1NC(=O)c1ccc(Cl)cc1 (stereo unspecified)
Ki [1]: 2.6 nM

Structure (SMILES): Cc1ccc(F)cc1C(=O)Nc1ccc(N2CCC(N3CCCC3C)C2)cc1C(F)(F)F (stereo unspecified)
Ki [1]: 4 nM

Structure (SMILES): Cc1cc(NC(=O)c2cccs2)ccc1N1CCC(N2CCCC2C)C1 (stereo unspecified)
Ki [1]: 19.9 nM

Structure (SMILES): Cc1cc(N2CCC(N3CCCC3C)C2)ccc1NC(=O)c1ccc(C#N)cc1 (stereo unspecified)
Ki [1]: 11.3 nM

Structure (SMILES): Cc1cc(N2CCC(N3CCCC3C)C2)ccc1NC(=O)c1ccc(S(C)(=O)=O)cc1 (stereo unspecified)
Ki [1]: 25.6 nM

metabolised [2]: 24%
metabolised [3]: 12%
metabolised [4]: 13%
Structure (SMILES): Cc1noc(C)c1C(=O)Nc1ccc(N2CCC(N3CCCC3C)C2)cc1 (stereo unspecified)
Ki [1]: 2.1 nM

Structure (SMILES): CC1CCCN1C1CCN(c2ccc(NC(=O)c3ccc(CN4CCOCC4)cc3)cc2)C1 (stereo unspecified)
Ki [1]: 70.2 nM

Structure (SMILES): Cc1cc(N2CC3CC4CCCN4C3C2)ccc1NC(=O)c1cc(F)ccc1C (stereo unspecified)
Ki [1]: 908 nM

Structure (SMILES): CC1CCCN1C1CCN(c2ccc(NC(=O)c3cccc(N(C)C)c3)cc2)C1 (stereo unspecified)
Ki [1]: 33.3 nM

Structure (SMILES): Cc1cc(N2CCC(N3CCCC3C)C2)ccc1NC(=O)c1ccc(CO)cc1 (stereo unspecified)
Ki [1]: 12.7 nM

Structure (SMILES): Cc1cc(N2CCC(CN3CCCC3C)C2)ccc1NC(=O)c1ccc2[nH]ccc2c1 (stereo unspecified)
Ki [1]: 45 nM

metabolised [2]: 90%
metabolised [3]: 43%
metabolised [4]: 20%
Structure (SMILES): CC1CCCN1C1CCN(c2ccc(NC(=O)c3ccc(Cl)cc3)cc2)C1 (stereo unspecified)
inhibition at 10 µM (hERG (KCNH2) [11]): 95%
inhibition at 1 µM (hERG (KCNH2) [12]): 19.9%
Ki [1]: 4.7 nM

Structure (SMILES): Cc1cc(N2CCC(N3CCCC3C)C2)ccc1NC(=O)c1ccc2[nH]ccc2c1 (stereo unspecified)
Ki [1]: 30.4 nM

Structure (SMILES): Cc1cc(N2CCC(N3CCCC3C)C2)ccc1NC(=O)c1cc(Cl)cc(Cl)c1 (stereo unspecified)
Ki [1]: 24.1 nM

metabolised [2]: 64%
metabolised [3]: 21%
metabolised [4]: 16%
Papp [5]: 7.81 ×10⁻⁶ cm/s
Structure (SMILES): Cc1cc(N2CCC(N3CCCC3C)C2)ccc1NC(=O)c1ccc2cc[nH]c2c1 (stereo unspecified)
Ki [1]: 15.1 nM

Structure (SMILES): Cc1cc(N2CCC(N3CCCC3C)C2)ccc1NC(=O)c1ccc(Oc2nccs2)cc1 (stereo unspecified)
Ki [1]: 24 nM

metabolised [2]: 48%
metabolised [3]: 31%
metabolised [4]: 12%
Structure (SMILES): CC1CCCN1C1CCN(c2ccc(NC(=O)c3ccccc3F)cc2)C1 (stereo unspecified)
Ki [1]: 8.2 nM

Structure (SMILES): CC1CCCN1C1CCN(c2ccc(NC(=O)c3ccc(N(C)C)cc3)cc2)C1 (stereo unspecified)
Ki [1]: 33.5 nM

metabolised [2]: 90%
metabolised [3]: 43%
metabolised [4]: 29%
Structure (SMILES): Cc1cc(NC(=O)c2ccc(Cl)cc2)ccc1N1CCC(N2CCCC2C)C1 (stereo unspecified)
Ki [1]: 4.8 nM

Structure (SMILES): Cc1cc(N2CCC(CN3CCCC3C)C2)ccc1NC(=O)c1ccc(-n2cccc2)cc1 (stereo unspecified)
Ki [1]: 3.1 nM

metabolised [2]: 79%
metabolised [3]: 89%
metabolised [4]: 87%
Structure (SMILES): Cc1cc(C)n(-c2ccc(C(=O)Nc3ccc(N4CCC(N5CCCC5C)C4)cc3C)cc2)n1 (stereo unspecified)
Ki [1]: 4.3 nM

Structure (SMILES): CC1CCCN1C1CCN(c2ccc(NC(=O)c3cccc(F)c3)cc2)C1 (stereo unspecified)
Ki [1]: 10.6 nM

inhibition (Histamine H3 receptor [13]): 119%
IC50 (Histamine H3 receptor [14]): 0.48 nM
Structure (SMILES): CC1CCCN1C1CCN(c2ccc(NC(=O)c3cc(Cl)cc(Cl)c3)cc2)C1 (stereo unspecified)
Ki [1]: 49.5 nM

Activity [6]: inactive
solubility [19]: 2670 µg/mL (≈ 6.75 mM)
Ki (Histamine H1 receptor): > 9300 nM
EC50 [8]: 1.1 nM
Ki (Histamine H3 receptor [9]): 16.5 nM
Ki (Histamine H3 receptor [10]): 8.6 nM
metabolised [2]: 38%
metabolised [4]: 5%
Papp [5]: 9.19 ×10⁻⁶ cm/s
Structure (SMILES): Cc1cc(N2CCC(N3CCCC3C)C2)ccc1NC(=O)c1cc(F)ccc1C (stereo unspecified)
Activity (Mus musculus [15]): Dose-dependent effect
Activity (Mus musculus [16]): 30.4%
Activity (Mus musculus [17]): 39.6%
Activity (Mus musculus [18]): 59.8%
IC50 [7]: 480 nM
Ki [1]: 1.2 nM

Structure (SMILES): Cc1cc(N2CCC(N3CCCC3C)C2)ccc1NC(=O)c1cccs1 (stereo unspecified)
Ki [1]: 12.4 nM

metabolised [2]: 28%
metabolised [3]: 16%
metabolised [4]: 2%
Papp [5]: 0.35 ×10⁻⁶ cm/s
Structure (SMILES): Cc1cc(N2CCC(N3CCCC3C)C2)ccc1NC(=O)c1cn[nH]c1 (stereo unspecified)
Ki [1]: 24.7 nM

metabolised [2]: 45%
metabolised [3]: 44%
metabolised [4]: 14%
Structure (SMILES): CC1CCCN1C1CCN(c2ccc(NC(=O)c3ccccc3F)c(C(F)(F)F)c2)C1 (stereo unspecified)
Ki [1]: 16.9 nM

Structure (SMILES): CC1CCCN1C1CCN(c2ccc(NC(=O)c3cccc(F)c3)c(C(F)(F)F)c2)C1 (stereo unspecified)
Ki [1]: 40 nM

Structure (SMILES): Cc1cc(N2CCC(N3CCCC3C)C2)ccc1NC(=O)c1ccc(-c2ccccn2)cc1 (stereo unspecified)
Ki [1]: 12.2 nM

Structure (SMILES): CC1CCCN1C1CCN(c2ccc(NC(=O)c3cccs3)cc2)C1 (stereo unspecified)
Ki [1]: 14 nM

Structure (SMILES): CC1CCCN1C1CCN(c2ccc(NC(=O)c3ccccc3N(C)C)cc2)C1 (stereo unspecified)
Ki [1]: 13.8 nM

Structure (SMILES): COc1ccc(C(=O)Nc2ccc(N3CCC(N4CCCC4C)C3)cc2)cc1 (stereo unspecified)
Ki [1]: 17.6 nM

Structure (SMILES): Cc1cc(N2CCC(CN3CCCC3C)C2)ccc1NC(=O)c1ccc(CO)cc1 (stereo unspecified)
Ki [1]: 62.1 nM

Structure (SMILES): Cc1cc(N2CCC(N3CCCC3C)C2)ccc1NC(=O)c1cc2ccccc2[nH]1 (stereo unspecified)
Ki [1]: 71.1 nM

Structure (SMILES): Cc1cc(N2CCC(N3CCCC3C)C2)ccc1NC(=O)c1ccc(Oc2ccccn2)cc1 (stereo unspecified)
Ki [1]: 22.8 nM

Structure (SMILES): Cc1cc(N2CCC(N3CCCC3C)C2)ccc1NC(=O)c1ccc(-c2ccncc2)cc1 (stereo unspecified)
Ki [1]: 26.7 nM

Structure (SMILES): Cc1cc(N2CCC(N3CCCC3C)C2)ccc1NC(=O)c1ccc(C)c(S(C)(=O)=O)c1 (stereo unspecified)
Ki [1]: 11.9 nM

Reference: ChEMBL document CHEMBL2390865, “Discovery of aryl ureas and aryl amides as potent and selective histamine H3 receptor antagonists for the treatment of obesity (part II)” (Bioorg Med Chem Lett, 2013)
